The text below walks through data of patent US20070065524A1, “Pharmaceutical composition containing guaiacol derivatives and syringol derivatives extracted from natural plant vinegar” (priority 2003, published 2007).

The assay can be described thus: DPPH free radical scavenging ability. In kind it is biochemical. In general terms: DPPH is a stable violet radical that fades when it is reduced.

Description: For example, a method using DPPH(1,1-diphenyl-2-picrylhydrazin) can be used.
DPPH scavenging ability, as described later, was evaluated by using each fraction.
4 ml of samples with 0.1, 0.05, 0.005, 0.001, 0.0005 and 0.0001 mg/ml diluted with methanol and 1 ml of 0.1 mM DPPH methanol solution were put into test tubes and mixed well, and left in a dark place for 30 minutes. Then absorbance of the mixture at 520 nm was read and compared with that of the BHT standard solution. The reducing power of samples can be indicated as scavenging activity (SC50) and SC50 is the concentration of samples that makes the concentration of DPPH reduce to 50%.

Consider `Cc1cc(C(C)(C)C)c(O)c(C(C)(C)C)c1` [BHT, butylated hydroxy toluene], for which the “Free radical removal ability” value is, setting by setting: (Conc. 10 ug/ml) 23.30 ± 1.94%; (Conc. 50 ug/ml) 68.41 ± 1.55%; (Conc. 100 ug/ml) 87.73 ± 0.64%; (Conc. 500 ug/ml) 96.03 ± 0.12%.
